Data as given in patent publication US8648086B2, “5,6-bicyclic heteroaryl-containing urea compounds as kinase inhibitors” (Ascepion Pharmaceuticals, Inc., priority 2009, dated 2014).

Columns and labels:
[1] = tested on: PC-3 human prostate cancer cells; assay: In vivo anti-tumor efficacy, PC-3 xenograft; details: Prostate cancer PC-3, nu/nu Balb/c mice, 50 mg/kg oral once per day, n = 2 × 3
Protocol: (§1) Female (nu/nu) Balb/c athymic mice at 4-6 weeks of age were injected subcutaneously (s.c.) with MDA-MB-231 human breast cancer cells, A549 human non-small cell lung cancer cells, U87-MG human glioblastoma cells, PC-3 human prostate cancer cells, HT-29 human colon cancer, BEL-7404 human hepatocellular carcinoma, or MKN-45 human gastric cancer cells (ATCC, 5×10^6 cells suspended in 100 μl DMEM medium). Treatment was initiated after the tumor mass grown from s.c. implanted tumor cells reached a median volume of 200-400 mm^3. Mice were randomized into groups with three in each group for small-sample efficacy tests such that the median tumor volume is nearly equal among all groups. For large-sample efficacy tests, mice were randomized into groups with thirteen or fourteen in each group. Each group was treated either with compounds (dissolved in 2:1 mixture of PEG400 and 0.01N HCl (v/v)) or without compounds (vehicle only, 2:1 mixture of PEG400 and 0.01N HCl (v/v)) once per day at dose 12.5, 25, 50 or 100 mg/kg by oral gavage. Tumor volumes were assessed at least twice weekly by caliper measurement from the start of treatment. Tumor volume was calculated using the formula ½×L×W^2 (L: length of tumor's long axis, W: length of tumor's short axis). Treatment was applied for at least two weeks or until the tumor volume reaches a size of ˜2500 mm^3 or greater. Mice were humanly sacrificed after the experiment. The efficacy of compounds in reducing tumor growth was assessed by the index Tumor Growth Inhibition (TGI). TGI for a given treatment period was calculated using the group mean tumor volumes according to the formula: TGI=100×(VVehicle—group−VTreatment—group)÷VVehicle—group wherein VVehicle—group represents the mean tumor volume for the group treated with vehicle and VTreatment—group represents the mean tumor volume of the group treated with a compound.

[2] = molecular target: T1, VEGFR2 (Homo sapiens, UniProt P35968); assay: VEGFR2 cell-based assay (phospho-VEGFR2 ELISA, transfected CHO cells); details: compound at 100 nM, read-out: % VEGFR2 kinase activity remains
T1 construct: expressed in transfected cells; host or cells: CHO cells, pcDNA3.1 plasmid
Procedure, shortened: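 Serum-starved CHO cells transfected with full-length VEGFR2 treated 2 h with compound (0.5–500 nM), then stimulated with 20% FBS. Lysates analyzed by ELISA for phospho- and total VEGFR2 using streptavidin-HRP chemiluminescence.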

[3] = tested on: MKN-45 human gastric cancer cells; assay: In vivo anti-tumor efficacy, MKN-45 xenograft; details: Gastric cancer MKN-45, nu/nu Balb/c mice
Protocol: as §1

[4] = tested on: MDA-MB-231 human breast cancer cells; assay: In vivo anti-tumor efficacy, MDA-MB-231 xenograft; details: Breast cancer MDA-MB-231, nu/nu Balb/c mice
Protocol: as §1, with “experiment.” for “experiment. The efficacy of compounds in reducing tumor growth was assessed by the index Tumor Growth Inhibition (TGI). TGI for a given treatment period was calculated using the group mean tumor volumes according to the formula: TGI=100×(VVehicle—group−VTreatment—group)÷VVehicle—group wherein VVehicle—group represents the mean tumor volume for the group treated with vehicle and VTreatment—group represents the mean tumor volume of the group treated with a compound.”
The efficacy of compounds in reducing tumor growth was assessed by the index Tumor Growth Inhibition (TGI). TGI for a given treatment period was calculated using the group mean tumor volumes according to the formula: TGI=100×(VVehicle—group−VTreatment—group)÷VVehicle—group wherein VVehicle—group represents the mean tumor volume for the group treated with vehicle and VTreatment—group represents the mean tumor volume of the group treated with a compound.

[5] = tested on: A549 human non-small cell lung cancer cells; assay: In vivo anti-tumor efficacy, A549 xenograft; details: Non-small cell lung cancer A549, nu/nu Balb/c mice, 50 mg/kg oral once per day, n = 2 × 3
Protocol: as §1

[6] = 50 mg/kg oral once per day, n = 2 × 3

T1 sequence (P35968 20-1356, species assumed): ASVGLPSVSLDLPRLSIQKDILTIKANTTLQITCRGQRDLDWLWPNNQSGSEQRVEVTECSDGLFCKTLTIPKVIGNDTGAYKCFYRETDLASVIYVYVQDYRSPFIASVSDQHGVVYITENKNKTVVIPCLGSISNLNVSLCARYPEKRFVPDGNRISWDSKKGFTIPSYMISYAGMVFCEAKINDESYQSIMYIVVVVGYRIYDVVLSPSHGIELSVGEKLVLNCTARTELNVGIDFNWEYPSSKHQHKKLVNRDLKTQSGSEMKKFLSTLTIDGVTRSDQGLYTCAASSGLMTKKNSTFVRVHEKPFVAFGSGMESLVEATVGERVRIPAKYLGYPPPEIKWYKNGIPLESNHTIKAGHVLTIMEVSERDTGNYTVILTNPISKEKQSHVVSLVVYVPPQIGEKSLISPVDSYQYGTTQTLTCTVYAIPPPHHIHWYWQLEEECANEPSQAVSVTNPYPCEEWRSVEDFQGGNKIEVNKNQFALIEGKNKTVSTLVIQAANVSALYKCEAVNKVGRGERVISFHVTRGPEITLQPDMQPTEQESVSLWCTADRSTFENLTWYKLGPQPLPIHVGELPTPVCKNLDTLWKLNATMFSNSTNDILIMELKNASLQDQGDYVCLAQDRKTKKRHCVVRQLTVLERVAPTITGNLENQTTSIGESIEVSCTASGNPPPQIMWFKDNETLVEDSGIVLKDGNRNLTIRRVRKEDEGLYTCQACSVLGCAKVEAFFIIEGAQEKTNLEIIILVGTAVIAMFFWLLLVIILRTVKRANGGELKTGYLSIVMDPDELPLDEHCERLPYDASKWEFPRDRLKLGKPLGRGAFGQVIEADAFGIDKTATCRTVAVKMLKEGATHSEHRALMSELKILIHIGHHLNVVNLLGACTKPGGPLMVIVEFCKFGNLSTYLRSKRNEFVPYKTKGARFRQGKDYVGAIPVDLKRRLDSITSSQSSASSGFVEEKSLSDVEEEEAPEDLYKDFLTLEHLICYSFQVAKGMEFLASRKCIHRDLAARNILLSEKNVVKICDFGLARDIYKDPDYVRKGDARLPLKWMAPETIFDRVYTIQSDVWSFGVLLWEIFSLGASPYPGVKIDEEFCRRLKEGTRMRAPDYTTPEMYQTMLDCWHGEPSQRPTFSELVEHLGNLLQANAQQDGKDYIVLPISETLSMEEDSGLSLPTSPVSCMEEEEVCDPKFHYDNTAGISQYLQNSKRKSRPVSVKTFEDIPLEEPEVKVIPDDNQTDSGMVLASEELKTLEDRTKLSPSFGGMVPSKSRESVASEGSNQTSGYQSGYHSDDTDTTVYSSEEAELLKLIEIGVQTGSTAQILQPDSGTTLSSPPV

Row | remaining activity at 0.1 µM [2] [%] | Compound | Tumor Growth Inhibition (TGI) [1] | Tumor Growth Inhibition (TGI) [3, 6] | Tumor Growth Inhibition (TGI) [4, 6] | Tumor Growth Inhibition (TGI) [5] | Tumor Growth Inhibition (TGI) ([3]; 12.5 mg/kg oral once per day, n = 6 × 13) | Tumor Growth Inhibition (TGI) ([3]; 25 mg/kg oral once per day, n = 6 × 13) | Tumor Growth Inhibition (TGI) ([3]; 50 mg/kg oral once per day, n = 3 × 3) | Tumor Growth Inhibition (TGI) ([3]; 50 mg/kg oral once per day, n = 6 × 13) | Tumor Growth Inhibition (TGI) ([3]; 100 mg/kg oral once per day, n = 6 × 13) | Tumor Growth Inhibition (TGI) ([4]; 12.5 mg/kg oral once per day, n = 6 × 14) | Tumor Growth Inhibition (TGI) ([4]; 25 mg/kg oral once per day, n = 6 × 14) | Tumor Growth Inhibition (TGI) ([4]; 50 mg/kg oral once per day, n = 6 × 14) | Tumor Growth Inhibition (TGI) ([4]; 100 mg/kg oral once per day, n = 6 × 14)
1 | < 70 | Cl.O=C(Nc1cccc(C(F)(F)F)c1)Nc1cccc2c1ccn2Cc1ccnc2[nH]ccc12 [Example 51, 1-(3-Trifluoromethylphenyl)-3-[1-(1H-pyrrolo[2,3-b]pyridin-4-ylmethyl)-1H-indol-4-yl]urea hydrochloride] | A (the TGI is greater or equal to 50%) | A (the TGI is greater or equal to 50%) | A (the TGI is greater or equal to 50%) | A (the TGI is greater or equal to 50%) |  |  |  |  |  |  |  |  | 
2 | ≥ 70 | Cl.O=C(Nc1cc(Cl)ccc1F)Nc1cccc2c1ccn2Cc1ccnc2[nH]ccc12 [Example 56, 1-(2-Fluoro-5-chlorophenyl)-3-[1-(1H-pyrrolo[2,3-b]pyridin-4-ylmethyl)-1H-indol-4-yl]urea hydrochloride] | A (the TGI is greater or equal to 50%) |  | A (the TGI is greater or equal to 50%) | A (the TGI is greater or equal to 50%) | B (the TGI for the compound of this invention is between 0% and 50%) | A (the TGI is greater or equal to 50%) | A (the TGI is greater or equal to 50%) | A (the TGI is greater or equal to 50%) | A (the TGI is greater or equal to 50%) | A (the TGI is greater or equal to 50%) | A (the TGI is greater or equal to 50%) | A (the TGI is greater or equal to 50%) | A (the TGI is greater or equal to 50%)
